According to PMC9554870, “Mesoporous Silica Nanoparticles Improve Oral Delivery of Antitubercular Bicyclic Nitroimidazoles” (ACS Biomaterials Science & Engineering, 2021):
Converted amounts (≈) assume the structure as drawn.

Legend:
[1] = Aqueous (saturated water) solubility by LC-UV; format: physicochemical; settings: deionized water, 37 °C, encapsulated samples 10% w/w, n = 3
Description: The solubility of pretomanid and MCC7433 was measured before and after loading into nanoparticles by using Shimadzu LCMS-2020 (Kyoto, Japan) with a variable-wavelength UV–visible detector. Briefly, 0.5 mg of compound equivalent particles (or 5 mg of 10 wt % compound loaded nanoparticles) were dispersed in 750 μL of deionized water. Samples were incubated at 37 °C on a rotator for 24 and 48 h. Samples were then centrifuged at 12 000 rpm for 20 min. The supernatant was collected and centrifuged for another round at 12 000 rpm, 20 min before being analyzed by LC-UV. The mobile phase was 0.05% formic acid in water (solvent A) and 0.05% formic acid in acetonitrile (solvent B). LC-MS condition: column Zorbax Eclipse XDB-Phenyl, 3.0 × 100 mm, 3.5 μm; column temperature: 40 °C; flow: 1 mL/min; injection volume: 5 μL; gradient timetable: 0.00 min, 5% B; 0.50 min, 5% B; 3.00 min, 100% B; 4.2 min, 100% B; 5.00 min, 5% B.

in vivo = settings: male, CD-1, mouse, po, 20 mg/kg
[2] = test system: M. tuberculosis H37Rv strain; assay: M. tuberculosis H37Rv minimum inhibition assay (resazurin reduction microplate assay); format: cell-based; settings: Mycobacterium tuberculosis, lowest concentration with >90% inhibition of growth, free compounds predissolved in DMSO, nanoformulations dispersed in assay media, n = 4–6, read-out: MIC90%Inhib H37Rv
[3] = parameters: method as in PMID 30562958; settings: vorinostat encapsulated within pristine and functionalized MCM-41; cited from earlier work

Structure (SMILES) | solubility at 24 h [1] [µg/mL] | Tmax (in vivo) [h] | half-life (in vivo) [h] | MIC90 [2] [µg/mL] | fold improvement of solubility compared to the free drug [3]
O=c1c2nc([N+](=O)[O-])cn2ccn1Cc1ccc(OC(F)(F)F)cc1 [MCC7433] | 0.33 (≈ 0.932 µM) | 5.33 | 3.21 | 0.25 to 0.5 (≈ 0.706 to 1.41 µM) | 
NNC(=O)c1ccncc1 [isoniazid] |  |  |  | 0.04 (≈ 0.292 µM) | 
O=[N+]([O-])c1cn2c(n1)OC[C@@H](OCc1ccc(OC(F)(F)F)cc1)C2 [pretomanid] | 15.5 (≈ 43.1 µM) |  |  | 0.25 (≈ 0.696 µM) | 
O=C(CCCCCCC(=O)Nc1ccccc1)NO [vorinostat] |  |  |  |  | 2.6–4.3 fold
